Measured values as given in patent publication US11871713B2, “Rice cultivar designated ‘PVL02’” (Board of Supervisors of Louisiana State University and …, priority 2019, dated 2024).

System: ‘PVL02’ rice
Assay: Herbicide tolerance of rice cultivar 'PVL02'
Type: in vivo, Oryza sativa
Conditions: rice variety ‘PVL02’ carrying plastidic ACCase I1781(Am)L; rate not given
Excerpt: ‘PVL02’ is an early maturing, long-grain rice variety that is tolerant to ACCase herbicides. For example, ‘PVL02’ is tolerant to Quizalofop-P-ethyl, the generic name for ethyl (R)-2-[4-(6-chloroquinoxalin-2-yl) oxy)phenoxy]propionate, which is sold under the tradename Provisia™ herbicide. PVL02 has excellent milling potential, very low chalk, and a grain length-width ratio of 2.8. ‘PVL02’ was developed using a pedigree selection system at the Louisiana State University Agricultural Center's H. Rouse Caffey Rice Research Station (HRCRRS) in Crowley, Louisiana ‘PVL02’ was selected from the cross Cheniere/BASF 1-5, a cross that was made at the HRCRRS in 2012. ‘Cheniere’ is a commercially-available cultivar. An earlier experimental designation for the ‘PVL02’ line was PVL-108.
The ‘PVL02’ line was developed from the bulk of a single F3 line (14P2980) made at the Puerto Rico winter rice nursery in 2014. ‘PVL02’ was evaluated in a Provisia preliminary yield trial at the HRCRRS in 2014 and 2015, under the experimental designation 14PVL108, before being entered into the Louisiana statewide commercial/advanced yield testing program in 2016-2018.

CCOC(=O)[C@@H](C)Oc1ccc(Oc2cnc3cc(Cl)ccc3n2)cc1 [Quizalofop-P-ethyl]
tolerance of the rice variety to the herbicide: tolerant
